In patent publication US9029405B2, “5-(biphenyl-4-yl)-3-phenyl-1,2,4-oxadiazolyl derivatives as ligands on the sphingosine 1-phosphate(SIP)receptors” (Merck Serono S.A., priority 2010, dated 2015):
Structures can show the parent of a compound that is named as a salt. Where two headings read alike, the source gives them in different places.

Legend:
S1P3 = S1P3 (Homo sapiens, UniProt Q99500); assay: Receptor binding assay, [33P]sphingosine 1-phosphate competition, membranes of CHO cells expressing S1P3
S1P3, sequence (Q99500 whole entry, species assumed): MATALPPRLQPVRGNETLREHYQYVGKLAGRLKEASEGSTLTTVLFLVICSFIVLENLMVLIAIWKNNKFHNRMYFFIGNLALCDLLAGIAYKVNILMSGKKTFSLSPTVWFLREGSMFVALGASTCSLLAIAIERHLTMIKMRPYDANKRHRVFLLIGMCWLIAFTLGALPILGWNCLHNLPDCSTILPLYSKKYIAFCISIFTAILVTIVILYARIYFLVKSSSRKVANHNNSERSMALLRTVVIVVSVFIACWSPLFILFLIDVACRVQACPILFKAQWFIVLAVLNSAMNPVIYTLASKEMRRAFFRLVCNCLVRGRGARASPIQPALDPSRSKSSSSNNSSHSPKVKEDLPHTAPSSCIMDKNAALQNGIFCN
In short: (§1)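 SPA competition on CHO membranes with [33P]S1P at 30 pM (S1P1) or 15 pM (S1P3), in 50 mM HEPES pH 7.5, 5 mM MgCl2, 100 mM NaCl, 0.4% fatty acid-free BSA, 60 min at RT. Non-specific binding defined by 1000-fold unlabeled S1P; Ki values reported.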

S1P1 [1] = target: T1, S1P1 (Homo sapiens, UniProt P21453); assay: Receptor binding assay, [33P]sphingosine 1-phosphate competition, membranes of CHO cells expressing S1P1
In short: as §1
Target sequence in this assay (P21453 whole entry, species assumed): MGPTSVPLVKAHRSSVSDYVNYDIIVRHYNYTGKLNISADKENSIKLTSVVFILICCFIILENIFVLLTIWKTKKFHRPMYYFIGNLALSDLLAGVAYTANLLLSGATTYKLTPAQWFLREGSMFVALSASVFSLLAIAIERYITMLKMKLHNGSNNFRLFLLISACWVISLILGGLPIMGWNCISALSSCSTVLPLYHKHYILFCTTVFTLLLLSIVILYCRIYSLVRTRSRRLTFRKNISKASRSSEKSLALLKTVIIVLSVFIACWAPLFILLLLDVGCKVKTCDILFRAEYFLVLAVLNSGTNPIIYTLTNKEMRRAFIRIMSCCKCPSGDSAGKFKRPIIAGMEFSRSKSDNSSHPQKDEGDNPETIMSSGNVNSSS

S1P1 [2] = target: T1, S1P1; assay: S1P1 internalization assay in S1P1-U2OS cells (cell imaging); format: cell-based; design: host or cells: U2OS (human bone osteosarcoma epithelial cells); conditions: U2OS cells expressing S1P1-EGFP, 384-well format
In short: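 U2OS cells stably expressing human S1P1-EGFP, serum-starved 2 h in medium with 0.1% fatty-acid-free BSA, then compound 1 h at 37° C. After fixation and Hoechst nuclear stain, receptor internalization imaged as EGFP spot count per nucleus.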
Target sequence in this assay (P21453 whole entry): as the sequence (P21453 whole entry, species assumed) above

[3] = 96 well plate, read-out: S1P3 Binding Ki [M] (96 well plate)
[4] = 384 well plate, read-out: S1P3 Binding Ki [M] (384 well plate)
[5] = 384 well plate, read-out: S1P1 Binding Ki [M] (384 well plate)
[6] = 96 well plate, read-out: S1P1 Binding Ki [M] (96 well plate)

| melting point [°C] | Ki (S1P3; [3]) [M] | Ki (S1P3; [4]) [M] | Ki (S1P1 [1]; [5]) [M] | EC50 (S1P1 [2]) [µM] | Ki (S1P1 [1]; [6]) [M] | Compound |
| --- | --- | --- | --- | --- | --- | --- |
| 217 | – | – | – | – | – | Cc1cc(-c2nc(-c3ccc([C@H](C)N(C)CC(=O)O)cc3)no2)ccc1-c1ccccc1C(F)(F)F (as salt: hydrochloride) [Example 33, N-methyl-N-[(1S)-1-(4-{5-[2-methyl-2′-(trifluoromethyl)biphenyl-4-yl]-1,2,4-oxadiazol-3-yl}phenyl)ethyl]glycine, hydrochloride salt] |
| 221 | – | – | – | – | – | Cc1ccccc1-c1ccc(-c2nc(-c3ccc([C@H](C)N(C)CC(=O)O)cc3)no2)cc1C(F)(F)F (as salt: hydrochloride) [Example 34, N-methyl-N-[(1S)-1-(4-{5-[2′-methyl-2-(trifluoromethyl)biphenyl-4-yl]-1,2,4-oxadiazol-3-yl}phenyl)ethyl]glycine, hydrochloride salt] |
| 217 | – | – | – | – | – | Cc1cc(-c2nc(-c3ccc([C@@H](C)N(C)CC(=O)O)cc3)no2)ccc1-c1ccccc1C(F)(F)F (as salt: hydrochloride) [Example 35, N-methyl-N-[(1R)-1-(4-{5-[2-methyl-2′-(trifluoromethyl)biphenyl-4-yl]-1,2,4-oxadiazol-3-yl}phenyl)ethyl]glycine, hydrochloride salt] |
| 221 | – | – | – | – | – | Cc1ccccc1-c1ccc(-c2nc(-c3ccc([C@@H](C)N(C)CC(=O)O)cc3)no2)cc1C(F)(F)F (as salt: hydrochloride) [Example 36, N-methyl-N-[(1R)-1-(4-{5-[2′-methyl-2-(trifluoromethyl)biphenyl-4-yl]-1,2,4-oxadiazol-3-yl}phenyl)ethyl]glycine, hydrochloride salt] |
| 176 | – | – | – | – | – | Cc1cc(-c2nc(-c3cccc(C(C)NCC(=O)O)c3)no2)ccc1-c1ccccc1C(F)(F)F (stereo not drawn) (as salt: hydrochloride) [Example 38, N-[1-(3-{5-[2-methyl-2′-(trifluoromethyl)biphenyl-4-yl]-1,2,4-oxadiazol-3-yl}phenyl)ethyl]glycine, hydrochloride salt] |
| 204 | – | – | – | – | – | Cc1ccccc1-c1ccc(-c2nc(-c3ccc(C(C)N(C)CC(=O)O)cc3)no2)cc1C(F)(F)F (stereo not drawn) (as salt: hydrochloride) [Example 40, N-methyl-N-[1-(4-{5-[2′-methyl-2-(trifluoromethyl)biphenyl-4-yl]-1,2,4-oxadiazol-3-yl}phenyl)ethyl]glycine, hydrochloride salt] |
| 214 | – | – | – | – | – | CCC(NCc1ccc(-c2noc(-c3ccc(-c4ccccc4C)c(C(F)(F)F)c3)n2)cc1F)C(=O)O (stereo not drawn) (as salt: hydrochloride) [Example 41, 2-[(2-fluoro-4-{5-[2′-methyl-2-(trifluoromethyl)biphenyl-4-yl]-1,2,4-oxadiazol-3-yl}benzyl)amino]butanoic acid, hydrochloride salt] |
| 177 | – | – | – | – | – | Cc1ccccc1-c1ccc(-c2nc(-c3cccc(C(C)NCC(=O)O)c3)no2)cc1C(F)(F)F (stereo not drawn) (as salt: hydrochloride) [Example 42, N-[1-(3-{5-[2′-methyl-2-(trifluoromethyl)biphenyl-4-yl]-1,2,4-oxadiazol-3-yl}phenyl)ethyl]glycine, hydrochloride salt] |
| – | 7.01e-07 | 7.7e-07 | 2e-09 | 0.00566 | – | Cc1ccccc1-c1ccc(-c2nc(-c3ccc(CN(C)[C@H](C)C(=O)O)cc3)no2)cc1C(F)(F)F [Example 71] |
| – | – | 2.66e-06 | 3.94e-09 | 0.0319 | – | Cc1ccccc1-c1ccc(-c2nc(-c3ccc(CN(C)[C@H](CO)C(=O)O)cc3)no2)cc1C(F)(F)F [Example 72] |
| – | – | 5.42e-06 | 2.27e-09 | 0.0298 | – | Cc1ccccc1-c1ccc(-c2nc(-c3ccc(CN(C)C4(C(=O)O)CCCC4)cc3)no2)cc1C(F)(F)F [Example 73] |
| – | – | 2.3e-06 | 5.3e-09 | 0.0302 | – | Cc1ccccc1-c1ccc(-c2nc(-c3ccc(CN(C)C(C)(CO)C(=O)O)cc3)no2)cc1C(F)(F)F (stereo not drawn) [Example 75] |
| – | – | 2.78e-07 | 2.16e-09 | 0.0223 | – | Cc1ccccc1-c1ccc(-c2nc(-c3cccc(CNC(C)(CO)C(=O)O)c3)no2)cc1C(F)(F)F (stereo not drawn) [Example 78] |
| – | 3.32e-08 | 2.67e-07 | 1.07e-09 | 0.0151 | – | Cc1ccccc1-c1ccc(-c2nc(-c3cccc(CNC(C(=O)O)C(C)C)c3)no2)cc1C(F)(F)F (stereo not drawn) [Example 79] |
| – | – | 3.51e-08 | 3.18e-10 | 0.00122 | – | Cc1ccccc1-c1ccc(-c2nc(-c3cccc(CNC4(C(=O)O)CCC4)c3)no2)cc1C(F)(F)F [Example 80] |
| – | – | 1.72e-07 | 1.72e-09 | 0.0495 | – | Cc1ccccc1-c1ccc(-c2nc(-c3cccc(CN(C)[C@@H](C)C(=O)O)c3)no2)cc1C(F)(F)F [Example 81] |
| – | – | 1.17e-07 | 1.01e-09 | 0.0251 | – | Cc1ccccc1-c1ccc(-c2nc(-c3cccc(CN[C@H](C)C(=O)O)c3)no2)cc1C(F)(F)F [Example 82] |
| – | – | 7.93e-07 | 5.26e-09 | 0.0479 | – | Cc1ccccc1-c1ccc(-c2nc(-c3cccc(CN(C)C(C(=O)O)C(C)C)c3)no2)cc1C(F)(F)F (stereo not drawn) [Example 85] |
| – | – | 5.55e-07 | 5.88e-09 | 0.0397 | – | CC[C@@H](C(=O)O)N(C)Cc1cccc(-c2noc(-c3ccc(-c4ccccc4C)c(C(F)(F)F)c3)n2)c1 [Example 86] |
| – | – | 4.68e-07 | 2.29e-09 | 0.0249 | – | CCN(Cc1cccc(-c2noc(-c3ccc(-c4ccccc4C)c(C(F)(F)F)c3)n2)c1)[C@H](CO)C(=O)O [Example 87, (R)-2-(Ethyl-{3-[5-(2′-methyl-2-trifluoromethyl-biphenyl-4-yl)-[1,2,4]oxadiazol-3-yl]-benzyl}-amino)-3-hydroxy-propionic acid] |
| – | – | 2.03e-06 | 2.56e-09 | 0.0322 | – | CCN(Cc1ccc(-c2noc(-c3ccc(-c4ccccc4C)c(C(F)(F)F)c3)n2)cc1)[C@@H](C)C(=O)O [Example 89, (2S)-2-(ethyl(4-(5-(2′-methyl-2-(trifluoromethyl)biphenyl-4-yl)-1,2,4-oxadiazol-3-yl)benzyl)amino)propanoic acid] |
| – | – | 9.48e-07 | 2.48e-09 | 0.00792 | – | CCN(Cc1ccc(-c2noc(-c3ccc(-c4ccccc4C)c(C(F)(F)F)c3)n2)cc1)[C@H](C)C(=O)O [Example 90, (R)-2-(Ethyl-{4-[5-(2′-methyl-2-trifluoromethyl-biphenyl-4-yl) [1,2,4]oxadiazol-3-yl]-benzyl}-amino)-propionic acid] |
| – | – | 7.36e-06 | 8.12e-09 | 0.0345 | – | Cc1ccccc1-c1ccc(-c2nc(-c3ccc(CCN[C@H](C(=O)O)C(C)C)cc3)no2)cc1C(F)(F)F [Example 91, (2S)-3-methyl-2-(4-(5-(2′-methyl-2-(trifluoromethyl)biphenyl-4-yl)-1,2,4-oxadiazol-3-yl)phenethylamino)butanoic acid] |
| – | – | 1.24e-06 | 6.94e-09 | 0.0295 | – | Cc1ccccc1-c1ccc(-c2nc(-c3ccc(CCN[C@@H](C)C(=O)O)cc3)no2)cc1C(F)(F)F [Example 92] |
| – | – | 4.67e-06 | 1.22e-08 | 0.0286 | – | Cc1ccccc1-c1ccc(-c2nc(-c3ccc(CCN[C@H](C)C(=O)O)cc3)no2)cc1C(F)(F)F [Example 93] |
| – | – | 7.4e-08 | 1.01e-09 | 0.00291 | 1.85e-10 | Cc1ccccc1-c1ccc(-c2nc(-c3cccc(CCN[C@@H](C)C(=O)O)c3)no2)cc1C(F)(F)F [Example 94, (2S)-2-(3-(5-(2′-methyl-2-(trifluoromethyl)biphenyl-4-yl)-1,2,4-oxadiazol-3-yl)phenethylamino)propanoic acid] |
| – | – | 1.12e-07 | 8.46e-10 | 0.00425 | 2.15e-10 | Cc1ccccc1-c1ccc(-c2nc(-c3cccc(CCN[C@H](C)C(=O)O)c3)no2)cc1C(F)(F)F [Example 95] |
| – | – | 1.78e-07 | 5.33e-10 | 0.00373 | – | Cc1ccccc1-c1ccc(-c2nc(-c3cccc(CCN[C@H](C(=O)O)C(C)C)c3)no2)cc1C(F)(F)F [Example 96] |
